Laboratory results: US7459414B2, “Herbicides” (Syngenta Crop Protection, Inc., priority 2002, dated 2008)

Legend:
Format in all cases: in vivo
Set-up in all cases: key: 1=total damage; 9=no action
[1] = system: Lolium (Lol); assay: Example B4 post-emergence herbicidal action, MERGE oil additive 0.7% (Table B4); conditions: 500 g of active substance per hectare; applied at 3- to 6-leaf stage; MERGE oil additive 0.7% by weight of the spray mixture; evaluation 3 weeks after application; scale of nine ratings
Method: (§1) Monocotyledonous and dicotyledonous weeds are grown in standard soil in plastics pots under greenhouse conditions. The test substances are applied to the test plants at the 3- to 6-leaf stage. The test substances are applied at a rate of application of 500 g of active substance per hectare in the form of an aqueous suspension (prepared from a 25% wettable powder (Example F3, b)) or in the form of an emulsion (prepared from a 25% emulsifiable concentrate (Example F1, c)) (500 liters of water/ha). The evaluation is carried out 3 weeks after application, using a scale of nine ratings (1=total damage, 9=no action). Ratings of from 1 to 4 (especially from 1 to 3) indicate good to very good herbicidal action. Herbicidal Action After the Emergence of the Plants (Post-emergence Action) of Compounds of the Present Invention (for Description See Example B2) Test plants: Avena (Ave), Lolium (Lol), Setaria (Set).

[2] = system: Setaria (Set); assay: as above; conditions: 500 g of active substance per hectare; applied at 3- to 6-leaf stage; MERGE oil additive 0.7% by weight of the spray mixture; evaluation 3 weeks after application; scale of nine ratings
Method: as §1

[3] = system: Avena (Ave); assay: as above; conditions: 500 g of active substance per hectare; applied at 3- to 6-leaf stage; MERGE oil additive 0.7% by weight of the spray mixture; evaluation 3 weeks after application; scale of nine ratings
Method: as §1

[4] = system: Lolium (Lol); assay: Example B3 pre-emergence herbicidal action, MERGE oil additive 0.7% (Table B3); conditions: 500 g of active substance/ha; MERGE oil additive 0.7% by weight of the spray mixture; evaluation 3 weeks after application; scale of nine ratings
Method: (§2) Monocotyledonous and dicotyledonous weeds are sown in standard soil in plastics pots. Immediately after sowing, the test substances are applied in the form of an aqueous suspension (prepared from a 25% wettable powder (Example F3, b)) or in the form of an emulsion (prepared from a 25% emulsifiable concentrate (Example F1, c)) (500 liters of water/ha). The rate of application is 500 g of active substance/ha. The test plants are then grown in the greenhouse under optimum conditions. The evaluation is carried out 3 weeks after application, sing a scale of nine ratings (1=total damage, 9=no action). Ratings of from 1 to 4 (especially from 1 to 3) indicate good to very good herbicidal action. Test plants: Avena (Ave), Lolium (Lol), Setaria (Set).

[5] = system: Setaria (Set); assay: as above; conditions: 500 g of active substance/ha; MERGE oil additive 0.7% by weight of the spray mixture; evaluation 3 weeks after application; scale of nine ratings
Method: as §2

[6] = system: Avena (Ave); assay: as above; conditions: 500 g of active substance/ha; MERGE oil additive 0.7% by weight of the spray mixture; evaluation 3 weeks after application; scale of nine ratings
Method: as §2

Row | Structure (SMILES) | Post-emergence action, rating, Lol [1] | Post-emergence action, rating, Set [2] | Post-emergence action, rating, Ave [3] | Pre-emergence action, rating, Lol [4] | Pre-emergence action, rating, Set [5] | Pre-emergence action, rating, Ave [6]
1 | CCc1cc(C)cc(CC)c1-c1c(OC(=O)C(C)(C)C)n2n(c1=O)CC(O)C(O)C2 (stereo not drawn) [1.40] | 1 | 2 | 1 |  |  | 
2 | CCc1cc(C)cc(CC)c1-c1c(O)n2n(c1=O)CC1OC3(CCCCC3)OC1C2 (stereo not drawn) [1.27] | 1 | 2 | 1 |  |  | 
3 | CCc1cc(C)cc(CC)c1-c1c(O)n2n(c1=O)CC(OCCOCCOC)C(O)C2 (stereo not drawn) [1.35] | 1 | 1 | 1 | 1 | 1 | 1
4 | CCc1cc(C)cc(CC)c1-c1c(O)n2n(c1=O)CC(OCCOC)CC2 (stereo not drawn) [1.15] | 2 | 1 | 1 |  |  | 
5 | CCc1cc(C)cc(CC)c1-c1c(O)n2n(c1=O)CC(OCC(=O)OC)CC2 (stereo not drawn) [1.23] | 1 | 1 | 1 |  |  | 
6 | CCc1cc(C)cc(CC)c1-c1c(O)n2n(c1=O)CC(=NOC)CC2 [1.30] | 1 | 1 | 1 |  |  | 
7 | CCc1cc(C)cc(CC)c1-c1c(O)n2n(c1=O)CC(OCCO)CC2 (stereo not drawn) [1.17] | 1 | 2 | 1 |  |  | 
8 | CCc1cc(C)cc(CC)c1-c1c(O)n2n(c1=O)CC(OC(C)C)CC2 (stereo not drawn) [1.14] | 2 | 2 | 1 |  |  | 
